{"source": "paper PMC10683482", "about": "“Offsetting Low-Affinity Carbohydrate Binding with Covalency to Engage Sugar-Specific Proteins for Tumor-Immune Proximity Induction” (ACS Central Science, 2023)", "data": [{"tested_on": "human serum antirhamnose antibody (IgG and IgM)", "test": "ELISA covalent engagement of serum anti-rhamnose antibody", "assay_type": "binding", "conditions": "2 μM compound, 2% human serum, 48 h; rhamnose 100 mM added after incubation", "experimental": "Figure 2 Capacity of Rha-cARMs to specifically covalently engage monoclonal anti-23F and serum anti-rhamnose. A. Chemical structures of the molecules investigated. B. Assessment of covalent vs noncovalent (cARM/ARM) engagement of human serum antirhamnose antibody via an ELISA assay. Each ARM/cARM (2 μM) was incubated with 2% human serum for 48 h and subsequently incubated directly on a streptavidin ELISA plate. Recruitment was evaluated by the addition of anti-IgG or anti-IgM HRP-conjugated secondary antibody with subsequent chromogenic substrate addition. “Comp” represents the addition of competitor rhamnose (500 mM) during 48 h of incubation. “Quench” refers to the addition of competitor rhamnose (100 mM) prior to ELISA plate binding but after 48 h of reaction incubation. C. SDS-PAGE fluorescent image of anti-23F antibody covalently labeled by fluorophore substituted Rha-cARMs (6–8). A representative protein stain associated with each gel is included on the left side of the fluorescent gel images. In all cases, 2 μM anti-23F antibody is incubated with 4 μM cARM (2 equiv) for 24 h in PBS spiked with 10% human serum. Where noted, L-rhamnose (100 mM, Rha. C) was used during incubation as a competitor for specific covalent labeling. Where noted, a free fluoresceine competitor (2.5 mM, Fluor. C) was used to distinguish fluorescein-promoted covalent labeling from rhamnose-promoted. The darker background in gels corresponding to cARM 6, 7 is attributed to the differing capacity of free cARM-fluorophore (fluoroscein vs A647) to be retained in gel, as well as an alternative imaging channel (Cy2 for fluorescein, Cy5 for A647). […] D. Kinetic SDS-PAGE fluorescence imaging experiment to determine Rha-AI-cARM/anti-23F antibody labeling kinetics using A647-cARM (8). cARM 8 (2–100 μM) was incubated with anti-23F antibody (2 μM) for up to 4 h. A representative fluorescence gel image is included corresponding to compound 8 (50 μM) incubated with either anti-23F antibody or isotype human IgG. Densitometry analysis with ImageJ was used to quantify relative band intensities. […] The error is calculated by alternative fits of initial rates data (all within the linear labeling range).\nNext, we tested if cARM tool compounds can selectively label endogenous human polyclonal antirhamnose antibodies via ELISA (4 α-O rhamnose or 5 α-S rhamnose) (Figure 2B). cARMs (4, 5) and noncovalent analog ARMs (1, 2) were incubated with 2% human serum for 48 h followed by addition to a streptavidin-ELISA plate. Antibody recruitment to the plate surface was measured via the addition of HRP-conjugated anti-IgG or anti-IgM secondary antibody, followed by a chromogenic substrate. […] In the absence of a competitor, we observed robust absorbance signal in samples incubated with cARM. […]", "values": [{"smiles": "C[C@@H]1O[C@@H](OCc2cn(CCc3cn(C(=O)OCCOCCOCCOCCOCCOCCOCCOCCNC(=O)CCCC[C@@H]4SC[C@@H]5NC(=O)N[C@@H]54)cn3)nn2)[C@H](O)[C@H](O)[C@H]1O", "note": "[compound 4]", "antibody binding signal, quench control": "significant antibody binding signal"}, {"smiles": "C[C@@H]1O[C@@H](OCc2cn(CCOCCNC(=O)OCCOCCOCCOCCOCCOCCOCCOCCNC(=O)CCCC[C@@H]3SC[C@@H]4NC(=O)N[C@@H]43)nn2)[C@H](O)[C@H](O)[C@H]1O", "note": "[compound 1]", "antibody binding signal, quench control": "baseline signal"}, {"smiles": "C[C@@H]1O[C@@H](SCc2cn(CCOCCNC(=O)OCCOCCOCCOCCOCCOCCOCCOCCNC(=O)CCCC[C@@H]3SC[C@@H]4NC(=O)N[C@@H]43)nn2)[C@H](O)[C@H](O)[C@H]1O", "note": "[compound 2]", "antibody binding signal, quench control": "baseline signal"}]}]}
